{"source": "patent US20110136897A1", "about": "“TOLL-LIKE RECEPTOR 9 AGONISTS FOR THE TREATMENT OF ANXIETY-RELATED DISORDERS AND INFLAMMATORY DISORDERS” (YISSUM RESEARCH DEVELOPMENT COMPANY OF THE HEBREW …, priority 2008, published 2011)", "key": {"RAW264.7 cells": {"system": "RAW264.7 cells", "assay": "LPS-induced NO production with or without corticosterone after ODN1826 pre-incubation", "assay_type": "cell-based, mouse", "conditions": "24 hours before LPS 1 μg/ml with corticosterone", "description": "Determination of nitric oxygen (NO) production: The nitrite concentration in the medium was measured as an indicator of NO production according to the Griess reaction. 1×10^5 RAW264.7 cells were grown in 0.5 ml medium in 48-wells plate until 80% confluence was obtained. […] (1% sulfanilamide, 0.1% naphthylethylenediamine dihydrochloride, 5% H3PO4). Absorbance was read at 540 nm after 10 minutes using SPECTRAFluor Plus spectrophotometer (TECAN, UK).\nIn order to study the functional effects of TLR9 activation on GR signaling, RAW264.7 cells were incubated with varying concentrations of ODN1826 (SEQ ID NO: 2) for 24 hours and the medium was replaced with one containing LPS (1 μg/ml) with or without […] corticosterone (CORT) for an additional 24 hours. As expected, CORT blocked lipopolysaccharide (LPS)-induced NO production."}, "FVB/N mice [1]": {"system": "FVB/N mice", "assay": "Predator (cat) odor stress paradigm, elevated plus maze (EPM) and acoustic startle response (ASR) one week post-exposure", "assay_type": "in vivo, mouse", "description": "Animals: FVB/N or adult TLR9 −/− mice and strain-matched wild type C57/B6J mice were housed four per cage, with constant temperature (21±1° C.), a 12 hour light/dark cycle, free access to food and water and habituation to the housing conditions by daily handling. Experiments were performed 1 week after arrival in the animal facility.\nBehavioral paradigms: Mice were placed for 10 minutes on well-soiled cat litter (in use by the cat for 2 days, sifted for stools). One week after exposure, animals were tested according to Cohen et al. (2005) Biol Psychiatry 58, 640 in the elevated plus maze (EPM) and the acoustic startle response (ASR) paradigms. The EPM is a plus-shaped platform with two opposing open arms and two opposing closed arms (surrounded by 14-cm high opaque walls on three sides). Mice were placed on the central platform and were allowed to explore the maze for 5 min. […]\nStartle response was measured using two ventilated startle chambers (SR-LAB System, San Diego Instruments, San Diego, Calif.). Each Plexiglas cylinder rests on a platform inside a sound-attenuated, ventilated chamber. Startle sessions started with a 5-minute acclimatization period to a background of 68 dB white noise, followed by 30 acoustic startle stimuli (110 dB white noise of 40 ms duration with 30 s or 45 s inter-trial interval). Startle amplitude was averaged over all 30 trials, and percent habituation was calculated as the percent difference between the response to the first block of stimuli and to the last one.\nAnimals were randomly divided into 5 groups. The following daily treatments initiated immediately before stressor exposure and for a total of four consecutive days: saline, 50 μg/kg ODN1826, 50 μg/kg mEN101, 50 μg/kg μg mEN101 and 500 μg/kg μg ODN2088. Oligonucleotides were delivered in 300 μl 0.9% NaCl solution (Teva, Israel). A control group was exposed to fresh, unused litter. Animals were sacrificed and brains dissected on day 1 2 h after the stressor, on day 4 2 h after the last injection, or on day 7 2 h after the behavioral tests, as noted.\nTo challenge the hypothesis that TLR9 activation modulates psychological stress reactions, mice were exposed to the predator odor stress paradigm (Cohen, H., Zohar, J., Matar, M. A., Kaplan, Z. & Geva, A. B. (2005) Biol Psychiatry 58, 640-50) and treated them with TLR9 activating or blocking oligonucleotides and with a known stress-suppressing oligonucleotide, mEN101. One week post-exposure, treated mice were tested for avoidance behavior and hyper-arousal in the elevated plus maze (EPM) and acoustic startle response (ASR) tests, respectively (FIG. 1B). […] They also presented greater startle amplitude (F5,103=10.75, p<0.0001; p<0.0001) and decreased startle habituation ([…]; p<0.0001) than control mice (FIG. 1C). The traumatic experience conferred varied impacts in the exposed mice, ranging from drastically maladaptive behavior to generally unmodified response patterns."}, "FVB/N mice [2]": {"system": "FVB/N mice", "assay": "Predator (cat) odor stress paradigm, elevated plus maze (EPM) and acoustic startle response (ASR) one week post-exposure", "assay_type": "in vivo, mouse", "remark": "listed apart in the source"}}, "note": "“Also recorded” adds a separate entry of the source."}
{"substance": "5′-TCCATGACGTTCCTGACGTT-3′ [ODN1826, reference compound]", "values": [{"measurement": "effect on LPS-induced NO production / cell activation", "setting": "RAW264.7 cells; higher doses (10-100 nM)", "result": "increased cell activation"}, {"measurement": "effect on CORT inhibition of LPS-induced NO production", "setting": "RAW264.7 cells; low doses (0.01-1 nM)", "result": "potentiated CORT anti-inflammatory effect"}, {"measurement": "anxiety index (AI)", "setting": "FVB/N mice [1]; 50 μg/kg (high dose for ODN1826), compared to saline injected stressed mice", "result": "significantly increased AI"}, {"measurement": "stress-induced anxiety scores (EPM score, startle response, habituation to startle)", "setting": "FVB/N mice [1]; 50 μg/kg i.p. daily for 4 consecutive days, tested day 7, compared to saline-treated stressed mice", "result": "increased stress-induced anxiety scores; also recorded: slightly anxiogenic behavior"}, {"measurement": "stress-induced anxiety scores (EPM score, startle response, habituation to startle)", "setting": "FVB/N mice [2]; 0.5 μg/kg i.p. daily for 4 days, tested day 7, compared to stressed mice", "result": "diminished stress-induced anxiety scores; also recorded: lower EPM scores"}, {"measurement": "anxiety index (AI)", "setting": "FVB/N mice [2]; low dose (0.5 μg/kg), compared to saline injected stressed mice", "result": "decreased it"}]}
